Experimental data from patent US8673913B2, “SHP-2 phosphatase inhibitor” (Case Western Reserve University, priority 2009, dated 2014).

Assays:
[1] = biological target: T1, SHP-2 PTP domain GST fusion protein (Homo sapiens, UniProt Q06124); assay: fluorescence titration (quenching of SHP-2 fluorescence); format: binding; set-up: Purified SHP-2 PTP domain GST-fusion protein was diluted into 20 mM Tris-HCl; made in house; conditions: SHP-2 protein 3 μM, excitation 295 nm
T1 sequence (Q06124 247-517 limits assumed): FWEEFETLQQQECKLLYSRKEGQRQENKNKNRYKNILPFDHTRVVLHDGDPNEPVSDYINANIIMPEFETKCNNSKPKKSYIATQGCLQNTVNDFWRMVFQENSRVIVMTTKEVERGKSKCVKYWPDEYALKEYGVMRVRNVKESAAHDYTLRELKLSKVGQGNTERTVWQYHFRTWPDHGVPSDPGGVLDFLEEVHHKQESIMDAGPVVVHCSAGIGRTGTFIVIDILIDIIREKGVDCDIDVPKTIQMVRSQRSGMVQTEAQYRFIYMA
Protocol: For all experiments, Purified SHP-2 PTP domain GST-fusion protein was diluted into 20 mM Tris-HCl, pH 7.5. Fluorescence spectra were recorded with a Luminescence Spectrometer LS50 (Perkin-Elmer, Boston, Mass.). Titrations were performed by increasing the test compound concentration while maintaining the SHP-2 protein concentration at 3 μM. Contributions from background fluorescence of the inhibitors were accounted for by subtracting the fluorescence of the inhibitors alone from the of the protein-inhibitor solution. The excitation wavelength was 295 nm and fluorescence was monitored from 360 to 500 nm. All reported fluorescence intensities are relative values and are not corrected for wavelength variations in detector response.
To validate that the active compounds identified were binding directly to the SHP-2 protein, we determined whether the active compounds directly interacted with the SHP-2 PTP domain using fluorescence quenching and taking advantage of the four tryptophans in the PTP domain, with Trp248 located 15 Å from the putative pY+5 pocket and Trp423 located 8 Å from the phosphatase active site. […] Therefore, their binding to SHP-2 protein could not be determined using this measurement. Thus, the fluorescence quenching experiments indicate that at least four active compounds identified do directly bind to SHP-2, thereby leading to their biological activities.

[2] = biological target: T1, SHP-2 PTP domain GST fusion protein; assay: in vitro protein tyrosine phosphatase assay, SHP-2 (Malachite Green); format: biochemical; set-up: SHP-2 PTP domain GST fusion protein purified in house was used as the enzyme; made in house; conditions: compound at 100 μM; read-out: inhibition of SHP-2 enzymatic activity
From the text: Candidate compounds were screened using the in vitro protein tyrosine phosphatase (PTP) assay kit (Sigma, St. Lois, Mo.). SHP-2 PTP domain GST fusion protein purified in house was used as the enzyme and a phospho-peptide corresponding to the surrounding sequence of pTyr^1146 in the insulin receptor (Thr-Arg-Asp-Ile-Tyr[PO3H2]-Glu-Thr-Asp-Tyr-Tyr) were used as the substrate. The assay determines free phosphate generated by dephosphorylation of the PTP substrate using the Malachite Green reagent. Briefly, 0.5 μg of GST-SHP-2 PTP was incubated in 40 μL assay buffer (25 mM Tris-HCl, PH7.4, 50 mM NaCl, 5 mM DTT, and 2.5 mM EDTA) with test compounds at various concentrations or DMSO at room temperature for 30 min. The PTP substrate was then added to a final concentration of 0.2 mM. The system was incubated at 30° C. for 30 min. Finally, 50 μl of Malachite Green solution was added and OD620 was measured after 5 min. In the phosphatase assays for SHP-1, CD45, TC-PTP, PTP-MEG2 (PTPN9), and LAR (PTPRF), procedures were similar, with the exception that GST-SHP-1, GST-CD45 cytoplasmic domain, GST-TC-PTP, GST-PTP-MEG2 PTP domain, and GST-LAR PTP domain purchased from Biomol International, L.P. (Plymouth Meeting, Pa.) were used instead as the enzymes.
Candidate compounds identified by CADD were screened by the in vitro tyrosine phosphatase assay as described in the Experimental Section. The GST-SHP-2 PTP domain fusion protein was incubated with the compounds at room temperature for 30 min before the phospho-peptide substrate was added to the assay systems, allowing compounds to bind to target sites in SHP-2. Each test compound was dissolved in DMSO. Initial concentration of the test compounds was 100 μM. In the experimental assay, DMSO was included as the negative control and sodium orthovanadate (100 μM), a general non-specific tyrosine phosphatase inhibitor, was used as the positive control. From the 165 commercially available compounds tested, we identified 9 compounds that inhibit SHP-2 catalytic activity with various efficiencies (FIG. 3A). […] The inhibitory effects of the compounds were dose-dependent.

Row | SMILES | quenching of SHP-2 fluorescence [1] | inhibition at 100 µM [2] [%]
1 | CNC(=S)NNC(=O)CSCCS(=O)(=O)c1ccccc1 [#234] | did not show significant quenching | –
2 | CNC(=S)NNC(=O)c1csc(-c2cccs2)n1 [#226] | – | 40
3 | CCc1ccc(OCC(=O)Nc2ccc(S(N)(=O)=O)cc2)cc1 [#270] | did not show significant quenching | –

Further lines, results first:

Row | quenching of SHP-2 fluorescence [1] | inhibition at 100 µM [2] [%] | SMILES
4 | strong quenching | – | CSc1ccc(C2C(C#N)=C(N)Oc3[nH]nc(-c4ccccc4Cl)c32)cc1 (centres unmarked) [#284]
5 | – | 45 | O=C(CCCn1c(=O)c2cccn2c2cccnc21)NCc1ccccc1F [#212]
